Source: patent US5369030A, “Method of inducing cellular differentiations and altering cell phenotype using ceramide analogs” (Duke University, priority 1992, dated 1994)
Like-named read-outs stand apart in the source and are kept apart here.

System: HL-60 cells
Assay: HL-60 cell growth/proliferation, cells counted with a hemocytometer
Type: cell-based, human
Details: for cell density / inhibition of cell growth (in words): Example 3C; for cell density: starting density 2×10^5 cells/ml; for inhibition of cell growth (in words): time course to 108 hours
Method: Human myelocytic leukemia HL-60 cells (20-45 passages (American Type Culture Collection, Rockville, Md., accession no. CCL 240) were obtained and grown in RPMI 1640 medium (Sigma Chemical Co., St. Louis, Mo.) containing 10% fetal calf serum at 37° C. in 5% CO2 incubator at a cell density of 2×10^5 cells/mi. The cells were washed once with phosphate buffered saline (PBS) and resuspended in serum-free media containing insulin (5 mg/liter) and transferrin (5 mg/liter) for 2-3 hours before treatment with various compounds.
HL-60 cells were treated with 3 μM of Cn-L-t-APPD with acyl chain lengths of C6, C8, C10, C12, C14, C16, and C18 (m=4, 6, 8, 10, 12, 14 and 16) in fresh ehtanol solution or with an ethanol vehicle and cell growth was determined following three days of treatment. Cell growth was quantified using a hemocytometer. Cell viability was judged by the ability to exclude trypan blue dye. Viability was always more than 80% unless otherwise described.
HL-60 cells (starting cell density of 2×10^5 cells/ml) were treated with different concentrations of C14-L-t-APPD and cells were counted following 24 and 72 hours of treatment. The results are representative of three experiments. A 1μM dose of C14-L-t-APPD had little or no effect on cell growth at 24 or 72 hours (approximately 105% and 130% of control, respectively). A 2μM dose inhibited cell growth to approximately 65% of the control at both 24 and 72 hours. […] The IC50% was approximately 2 μM (10 fmol/cell). IC50% is the concentration of test compound that causes 50% inhibition of cell growth in comparison with controls. Thus, similar to results with C2-ceramide, C14-APPD inhibited cell proliferation at different durations of treatment.
HL-60 cells (starting cell density of 2×10^5 cells/ml) were treated with 3 μM Cn-L-t-APPD derivatives with N-acyl chain lengths of C6, C8, C10, C12, C14, C16, and C18 (m=4,6,8,10, 12, 14, and 16) and cells were counted at 0, 12, 36, 60, 84 and 108 hours post treatment. The results are representative of 3 experiments.
N-acyl derivatives of 2-amino-1-(4'-nitrophenyl)-1,3-propanediol (Cn-D-t-ANPPD) were tested to determine the effects of chain length on HL-60 cell growth as described in Examples 3 A. HL-60 cells (at a starting cell density of 2×10^5 cells/ml) were treated with 3 μM of the diff analogs (C6, C8, C10, C12, C14, C16 and C18) of Cn-D-t-ANPPD, and cell growth was determined at three days. The control received no Cn-D-t-ANPPD. Treatment of HL-60 cells with C2-ceramide is included for comparison.
HL-60 cells were treated with the indicated concentrations and cell growth was determined following three days of treatment as described in Example 3B.
The suitability of phenylaminopropanediol derivatives as analogs of ceramide allowed further investigation of the structural requirements for ceramide-mediated biology. For these experiments, C14 (N-myristoyl) derivatives of different phenylaminoalcohols were synthesized and examined for their biologic activity. HL-60 cells (starting cell density of 2×10^5 cells/ml) were treated with 3 μM of C14 derivatives C14-L-t-APPD, C14-D-t-ANPPD, C14-D-e-APP-1, C14-L-e-APP-1, C14-APP-3 and C14-D-APP3. The structures of these compounds are provided in Table I. Cell growth was determined at 3 days as described in Example 3A. The results shown are averages of two determinations, and are representative of five different experiments.
and C14-L-e-APP-1 HL-60 cells were treated as described in Example 3B. growth was determined after 3 days of treatment.

[1] = Example 5, 3 μM C14 derivatives, 3 days
[2] = Homo sapiens, HL-60, 72 h, Example 4A, Table II, 3 μM Cn-D-t-ANPPD (C2-ceramide concentration not given), three days, read-out: CELL GROWTH (% OF CONTROL)
[3] = Example 3A, 3 μM Cn-L-t-APPD, three days

SMILES	activity at 3 µM [2]	cell growth, % of control [3]	cell density (3 μM, 60 hours)	cell density (3 μM, 84 hours)	cell density (3 μM, 108 hours)	further results
CCCCCCCCCCCCCC(=O)N[C@@H](C)[C@H](O)c1ccccc1 (relative stereo) [C14-DL-e-APP-1]	–	–	–	–	–	cell growth, % of control [1]: 60%
CCCCCC(=O)N[C@H](CO)[C@H](O)c1ccc([N+](=O)[O-])cc1 [C6-D-t-ANPPD]	70%	–	–	–	–	–
CCCCCC(=O)N[C@@H](CO)[C@@H](O)c1ccccc1 [C6-L-t-APPD]	–	105%	800000 mL⁻¹	1.4e+06 mL⁻¹	2.4e+06 mL⁻¹	–
CCCCCCCC(=O)N[C@H](CO)[C@H](O)c1ccc([N+](=O)[O-])cc1 [C8-D-t-ANPPD]	70%	–	–	–	–	–
CCCCCCCC(=O)N[C@@H](CO)[C@@H](O)c1ccccc1 [C8-L-t-APPD]	–	104%	800000 mL⁻¹	1.4e+06 mL⁻¹	2.4e+06 mL⁻¹	–
CCCCCCCCCC(=O)N[C@H](CO)[C@H](O)c1ccc([N+](=O)[O-])cc1 [C10-D-t-ANPPD]	68%	–	–	–	–	–
CCCCCCCCCC(=O)N[C@@H](CO)[C@@H](O)c1ccccc1 [C10-L-t-APPD]	–	90%	800000 mL⁻¹	1.2e+06 mL⁻¹	2e+06 mL⁻¹	inhibition at 3 µM (Homo sapiens, HL-60, 72 h, Example 3A, 3 μM, three days, read-out: reduction of cell growth as compared to a control): ~10%
CCCCCCCCCCCC(=O)N[C@H](CO)[C@H](O)c1ccc([N+](=O)[O-])cc1 [C12-D-t-ANPPD]	4%	–	–	–	–	CELL GROWTH (% OF CONTROL) (Example 4A, Table II, 3 μM Cn-D-t-ANPPD (C2-ceramide concentration not given), three days, listed as C12 chain analog): about 4 % OF CONTROL
CCCCCCCCCCCC(=O)N[C@@H](CO)[C@@H](O)c1ccccc1 [C12-L-t-APPD]	–	approximately 40%	300000 mL⁻¹	300000 mL⁻¹	600000 mL⁻¹	inhibition of cell growth (in words) (3 μM): able to inhibit cell growth by significant amounts
CCCCCCCCCCCCCC(=O)N[C@H](CO)[C@H](O)c1ccc([N+](=O)[O-])cc1 [C14-D-t-ANPPD]	1%	–	–	–	–	CELL GROWTH (% OF CONTROL) (Example 4A, Table II, 3 μM Cn-D-t-ANPPD (C2-ceramide concentration not given), three days, listed as C14 chain analog): about 1 % OF CONTROL; activity at 0.1 µM (Homo sapiens, HL-60, 72 h, Example 4B, Table III, 0.1 μM, three days, read-out: CELL GROWTH (% OF CONTROL)): 110%; activity at 0.2 µM (Homo sapiens, HL-60, 72 h, Example 4B, Table III, 0.2 μM, three days, read-out: CELL GROWTH (% OF CONTROL)): 112%; activity at 0.3 µM (Homo sapiens, HL-60, 72 h, Example 4B, Table III, 0.3 μM, three days, read-out: CELL GROWTH (% OF CONTROL)): 113%; activity at 0.5 µM (Homo sapiens, HL-60, 72 h, Example 4B, Table III, 0.5 μM, three days, read-out: CELL GROWTH (% OF CONTROL)): 105%; activity at 1 µM (Homo sapiens, HL-60, 72 h, Example 4B, Table III, 1 μM, three days, read-out: CELL GROWTH (% OF CONTROL)): 85%; activity at 2 µM (Homo sapiens, HL-60, 72 h, Example 4B, Table III, 2 μM, three days, read-out: CELL GROWTH (% OF CONTROL)): 12%; activity at 3 µM (Homo sapiens, HL-60, 72 h, Example 4B, Table III, 3 μM, three days, read-out: CELL GROWTH (% OF CONTROL)): 3%; activity at 4 µM (Homo sapiens, HL-60, 72 h, Example 4B, Table III, 4 μM, three days, read-out: CELL GROWTH (% OF CONTROL)): 2%; IC50 (Homo sapiens, HL-60, 72 h, Example 4B, three days, read-out: concentration for 50% inhibition of cell growth): ~1500 nM
CCCCCCCCCCCCCC(=O)N[C@H](C)[C@H](O)c1ccccc1 [C14-D-t-APP-1]	–	–	–	–	–	cell growth, % of control [1]: 49%
CCCCCCCCCCCCCC(=O)N[C@@H](CO)Cc1ccccc1 [C14-DAPP-3]	–	–	–	–	–	cell growth, % of control [1]: 14%
CCCCCCCCCCCCCC(=O)N[C@H](CO)Cc1ccccc1 [C14-LAPP-3]	–	–	–	–	–	cell growth, % of control [1]: 15%
CCCCCCCCCCCCCCCC(=O)N[C@H](CO)[C@H](O)c1ccc([N+](=O)[O-])cc1 [C16-D-t-ANPPD]	5%	–	–	–	–	CELL GROWTH (% OF CONTROL) (Example 4A, Table II, 3 μM Cn-D-t-ANPPD (C2-ceramide concentration not given), three days): ~5 % OF CONTROL
CCCCCCCCCCCCCCCC(=O)N[C@@H](CO)[C@@H](O)c1ccccc1 [C16-L-t-APPD]	–	~65%	400000 mL⁻¹	700000 mL⁻¹	1.2e+06 mL⁻¹	inhibition of cell growth (in words) (3 μM): able to inhibit cell growth by significant amounts
CCCCCCCCCCCCCCCCCC(=O)N[C@H](CO)[C@H](O)c1ccc([N+](=O)[O-])cc1 [C18-D-t-ANPPD]	82%	–	–	–	–	–
CCCCCCCCCCCCCCCCCC(=O)N[C@@H](CO)[C@@H](O)c1ccccc1 [C18-L-t-APPD]	–	116%	800000 mL⁻¹	1.4e+06 mL⁻¹	2.3e+06 mL⁻¹	–
